In US12264156B2, “Compounds and pharmaceutical compositions thereof for the treatment of diseases” (GALAPAGOS NV, priority 2018, dated 2025):

Columns and labels:
Type in all cases: biochemical
Conditions in all cases: ADP-Glo SIK kinase assay
SIK3 = molecular target: T1, SIK3 (Homo sapiens, UniProt Q9Y2K2); experiment: ADP-Glo kinase assay, SIK3
T1 construct: purchased SignalChem S12-11G-100
Procedure, shortened: (§1)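 ADP-Glo, RT throughout. Enz/substrate + ATP, 120 min; ADP-Glo reagent 40 min (ATP depletion); detection reagent 30 min; luminescence read. Neg ctrl 1% DMSO, pos ctrl 10 μM staurosporine, final concs.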

SIK1 = molecular target: T2, SIK1 (Homo sapiens, UniProt P57059); experiment: ADP-Glo kinase assay, SIK1
T2 construct: purchased Carna Biosciences 02-131
T2 sequence (P57059 whole entry): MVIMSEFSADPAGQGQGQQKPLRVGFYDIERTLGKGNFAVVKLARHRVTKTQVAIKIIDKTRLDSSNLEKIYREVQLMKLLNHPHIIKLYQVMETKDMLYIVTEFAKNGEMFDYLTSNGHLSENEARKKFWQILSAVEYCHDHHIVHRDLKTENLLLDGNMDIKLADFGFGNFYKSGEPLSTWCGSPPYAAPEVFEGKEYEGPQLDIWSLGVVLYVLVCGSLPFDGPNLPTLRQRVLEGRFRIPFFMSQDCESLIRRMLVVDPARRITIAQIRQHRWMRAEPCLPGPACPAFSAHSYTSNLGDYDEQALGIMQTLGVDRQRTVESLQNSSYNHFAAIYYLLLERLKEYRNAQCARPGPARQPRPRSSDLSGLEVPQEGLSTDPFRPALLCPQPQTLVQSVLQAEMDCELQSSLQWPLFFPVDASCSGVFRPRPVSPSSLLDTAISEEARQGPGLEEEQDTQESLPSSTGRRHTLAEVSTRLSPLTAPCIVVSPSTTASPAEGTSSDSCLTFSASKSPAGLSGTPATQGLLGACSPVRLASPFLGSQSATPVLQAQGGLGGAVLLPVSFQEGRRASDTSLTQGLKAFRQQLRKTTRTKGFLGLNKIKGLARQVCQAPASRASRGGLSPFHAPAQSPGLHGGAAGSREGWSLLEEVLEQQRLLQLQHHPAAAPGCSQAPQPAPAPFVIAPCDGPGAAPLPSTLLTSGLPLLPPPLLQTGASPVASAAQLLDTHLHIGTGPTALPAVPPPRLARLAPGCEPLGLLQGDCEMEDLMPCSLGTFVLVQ
Procedure, shortened: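 Enzyme–substrate mix was started with ATP and incubated 120 min at RT. ADP formed was quantified by ADP-Glo: 40 min ATP depletion, then 30 min detection reagent converting ADP to ATP for luciferase luminescence, which rises with kinase activity. Controls: 1% DMSO and 10 μM staurosporine (final).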

SIK2 = molecular target: T3, SIK2 (Homo sapiens, UniProt Q9H0K1); experiment: ADP-Glo kinase assay, SIK2
T3 construct: purchased ThermoFisher Scientific PV4792
T3 sequence (Q9H0K1 whole entry): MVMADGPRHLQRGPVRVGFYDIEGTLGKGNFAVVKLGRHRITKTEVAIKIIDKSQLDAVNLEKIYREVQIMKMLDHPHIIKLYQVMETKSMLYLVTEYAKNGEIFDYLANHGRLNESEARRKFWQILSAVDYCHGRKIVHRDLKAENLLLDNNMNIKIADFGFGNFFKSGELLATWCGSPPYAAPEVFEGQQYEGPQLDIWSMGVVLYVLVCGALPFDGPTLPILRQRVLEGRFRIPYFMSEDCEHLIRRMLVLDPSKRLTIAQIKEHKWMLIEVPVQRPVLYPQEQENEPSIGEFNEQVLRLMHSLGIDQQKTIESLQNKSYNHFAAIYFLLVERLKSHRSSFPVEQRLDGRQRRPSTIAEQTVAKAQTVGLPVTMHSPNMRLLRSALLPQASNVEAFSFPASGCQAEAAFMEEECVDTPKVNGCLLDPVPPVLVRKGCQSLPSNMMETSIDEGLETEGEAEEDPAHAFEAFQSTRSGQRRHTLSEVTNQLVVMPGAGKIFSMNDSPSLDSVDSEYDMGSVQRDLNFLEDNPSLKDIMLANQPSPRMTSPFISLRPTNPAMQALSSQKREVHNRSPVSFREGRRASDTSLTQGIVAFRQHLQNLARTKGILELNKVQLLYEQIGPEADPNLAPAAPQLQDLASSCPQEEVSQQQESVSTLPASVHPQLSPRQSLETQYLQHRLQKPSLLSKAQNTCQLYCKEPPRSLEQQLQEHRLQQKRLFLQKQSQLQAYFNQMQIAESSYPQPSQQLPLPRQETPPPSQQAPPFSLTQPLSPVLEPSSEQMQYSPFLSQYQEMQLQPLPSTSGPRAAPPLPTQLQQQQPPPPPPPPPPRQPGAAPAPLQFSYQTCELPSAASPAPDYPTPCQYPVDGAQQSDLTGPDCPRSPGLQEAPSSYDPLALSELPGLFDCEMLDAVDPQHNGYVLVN
Procedure, shortened: as §1

T1 sequence (Q9Y2K2 whole entry): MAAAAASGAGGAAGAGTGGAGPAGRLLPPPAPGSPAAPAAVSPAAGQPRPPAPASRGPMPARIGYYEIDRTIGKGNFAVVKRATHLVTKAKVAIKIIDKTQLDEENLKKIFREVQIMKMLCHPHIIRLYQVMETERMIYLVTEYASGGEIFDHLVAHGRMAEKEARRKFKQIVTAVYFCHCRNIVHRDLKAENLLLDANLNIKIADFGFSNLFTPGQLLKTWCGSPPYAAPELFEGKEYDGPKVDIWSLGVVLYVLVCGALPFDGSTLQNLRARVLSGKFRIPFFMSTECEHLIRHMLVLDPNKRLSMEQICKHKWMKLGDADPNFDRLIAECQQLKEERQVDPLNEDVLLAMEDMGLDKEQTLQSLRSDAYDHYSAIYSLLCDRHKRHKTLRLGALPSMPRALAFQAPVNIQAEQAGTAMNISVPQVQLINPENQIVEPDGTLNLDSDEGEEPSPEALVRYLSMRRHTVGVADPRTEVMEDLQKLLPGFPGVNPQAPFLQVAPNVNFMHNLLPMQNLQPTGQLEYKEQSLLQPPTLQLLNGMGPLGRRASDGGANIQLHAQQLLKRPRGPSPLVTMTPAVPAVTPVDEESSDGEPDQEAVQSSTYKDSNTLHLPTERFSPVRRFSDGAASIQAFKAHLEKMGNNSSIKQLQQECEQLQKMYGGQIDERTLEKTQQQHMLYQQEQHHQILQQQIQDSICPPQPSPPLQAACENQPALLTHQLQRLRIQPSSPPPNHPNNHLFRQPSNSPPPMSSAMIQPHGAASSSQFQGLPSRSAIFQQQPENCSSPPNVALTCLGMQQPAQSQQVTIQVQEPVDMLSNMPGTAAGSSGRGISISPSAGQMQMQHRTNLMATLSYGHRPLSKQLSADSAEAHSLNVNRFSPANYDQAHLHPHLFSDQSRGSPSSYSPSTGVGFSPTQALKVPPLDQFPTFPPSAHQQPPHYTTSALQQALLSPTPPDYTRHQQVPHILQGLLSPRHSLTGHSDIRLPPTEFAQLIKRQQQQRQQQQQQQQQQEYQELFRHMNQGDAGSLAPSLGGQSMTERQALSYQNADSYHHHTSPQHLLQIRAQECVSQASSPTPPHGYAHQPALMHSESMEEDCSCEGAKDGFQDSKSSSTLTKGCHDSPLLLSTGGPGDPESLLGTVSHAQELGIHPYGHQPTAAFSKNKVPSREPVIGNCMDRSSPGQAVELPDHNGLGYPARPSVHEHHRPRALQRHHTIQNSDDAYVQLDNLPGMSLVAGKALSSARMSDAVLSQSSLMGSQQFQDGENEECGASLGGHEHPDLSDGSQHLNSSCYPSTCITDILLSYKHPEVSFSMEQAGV

Compound	IC50 (SIK3)	IC50 (SIK1)	IC50 (SIK2)
COc1cc(-c2cnc3cc(OCCCN4CC5(CC(O)C5)C4)ccn23)cc(OC(F)F)c1C(=O)NC1CC1 [compound 297, N-cyclopropyl-2-(difluoromethoxy)-4-[7-[3-(6-hydroxy-2-azaspiro[3.3]heptan-2-yl)propoxy]imidazo[1,2-a]pyridin-3-yl]-6-methoxy-benzamide]	0.01 to 10 nM	10 to 100 nM	0.01 to 10 nM
COc1cc(-c2cnc3cc(OCCCN4CCc5ncncc5C4)ccn23)cc(OC(F)F)c1C(=O)NC1CC1 [compound 304, N-cyclopropyl-2-(difluoromethoxy)-4-[7-[3-(7,8-dihydro-5H-pyrido[4,3-d]pyrimidin-6-yl)propoxy]imidazo[1,2-a]pyridin-3-yl]-6-methoxy-benzamide]	0.01 to 10 nM	10 to 100 nM	0.01 to 10 nM
COc1cc(-c2cnc3cc(OCCOCCN4CCOCC4)ccn23)cc(OC(F)F)c1C(=O)NC1CC1 [compound 306, N-cyclopropyl-2-(difluoromethoxy)-6-methoxy-4-[7-[2-(2-morpholinoethoxy)ethoxy]imidazo[1,2-a]pyridin-3-yl]benzamide]	0.01 to 10 nM	10 to 100 nM	0.01 to 10 nM
CCN(CC)CCOCCOc1ccn2c(-c3cc(OC)c(C(=O)NC4CC4)c(OC(F)F)c3)cnc2c1 [compound 307, N-cyclopropyl-4-[7-[2-[2-(diethylamino)ethoxy]ethoxy]imidazo[1,2-a]pyridin-3-yl]-2-(difluoromethoxy)-6-methoxy-benzamide]	10 to 100 nM	10 to 100 nM	0.01 to 10 nM
COc1cc(-c2cnc3cc(OCCN4CCN(CCO)CC4)ccn23)cc(OC(F)F)c1C(=O)NC1CC1 [compound 308, N-cyclopropyl-2-(difluoromethoxy)-4-[7-[2-[4-(2-hydroxyethyl)piperazin-1-yl]ethoxy]imidazo[1,2-a]pyridin-3-yl]-6-methoxy-benzamide]	0.01 to 10 nM	10 to 100 nM	0.01 to 10 nM
COc1cc(-c2cnc3cc(OCCCN4CCc5c(ncn5C)C4)ccn23)cc(OC(F)F)c1C(=O)NC1CC1 [compound 309, N-cyclopropyl-2-(difluoromethoxy)-6-methoxy-4-[7-[3-(1-methyl-6,7-dihydro-4H-imidazo[4,5-c]pyridin-5-yl)propoxy]imidazo[1,2-a]pyridin-3-yl]benzamide]	0.01 to 10 nM	10 to 100 nM	0.01 to 10 nM
COc1cc(-c2cnc3cc(OCCCN4CCn5cccc5C4)ccn23)cc(OC(F)F)c1C(=O)NC1CC1 [compound 310, N-cyclopropyl-2-(difluoromethoxy)-4-[7-[3-(3,4-dihydro-1H-pyrrolo[1,2-a]pyrazin-2-yl)propoxy]imidazo[1,2-a]pyridin-3-yl]-6-methoxy-benzamide]	0.01 to 10 nM	10 to 100 nM	0.01 to 10 nM
COc1cc(-c2cnc3cc(OCCCN4CCc5ncccc5C4)ccn23)cc(OC(F)F)c1C(=O)NC1CC1 [compound 311, N-cyclopropyl-2-(difluoromethoxy)-4-[7-[3-(7,8-dihydro-5H-1,6-naphthyridin-6-yl)propoxy]imidazo[1,2-a]pyridin-3-yl]-6-methoxy-benzamide]	0.01 to 10 nM	10 to 100 nM	0.01 to 10 nM
COc1cc(-c2cnc3cc(OCCCN4CCn5ccnc5C4)ccn23)cc(OC(F)F)c1C(=O)NC1CC1 [compound 312, N-cyclopropyl-2-(difluoromethoxy)-4-[7-[3-(6,8-dihydro-5H-imidazo[1,2-a]pyrazin-7-yl)propoxy]imidazo[1,2-a]pyridin-3-yl]-6-methoxy-benzamide]	0.01 to 10 nM	10 to 100 nM	0.01 to 10 nM
COc1cc(-c2cnc3cc(OCCCN4CCn5ncnc5C4)ccn23)cc(OC(F)F)c1C(=O)NC1CC1 [compound 313, N-cyclopropyl-2-(difluoromethoxy)-4-[7-[3-(6,8-dihydro-5H-[1,2,4]triazolo[1,5-a]pyrazin-7-yl)propoxy]imidazo[1,2-a]pyridin-3-yl]-6-methoxy-benzamide]	0.01 to 10 nM	10 to 100 nM	0.01 to 10 nM
